{"source": "paper PMC4380750", "about": "(Bioorganic & medicinal chemistry, 2015)", "key": {"KOR [1]": {"test_system": "KOR", "conditions": "binding affinity; cited from earlier work"}, "KOR [2]": {"test_system": "KOR", "conditions": "electrically stimulated guinea pig ileal longitudinal muscle; cited from earlier work"}, "MOR [3]": {"biological_target": "T1, MOR (Mus musculus, UniProt P42866)", "T1 sequence (P42866 whole entry)": "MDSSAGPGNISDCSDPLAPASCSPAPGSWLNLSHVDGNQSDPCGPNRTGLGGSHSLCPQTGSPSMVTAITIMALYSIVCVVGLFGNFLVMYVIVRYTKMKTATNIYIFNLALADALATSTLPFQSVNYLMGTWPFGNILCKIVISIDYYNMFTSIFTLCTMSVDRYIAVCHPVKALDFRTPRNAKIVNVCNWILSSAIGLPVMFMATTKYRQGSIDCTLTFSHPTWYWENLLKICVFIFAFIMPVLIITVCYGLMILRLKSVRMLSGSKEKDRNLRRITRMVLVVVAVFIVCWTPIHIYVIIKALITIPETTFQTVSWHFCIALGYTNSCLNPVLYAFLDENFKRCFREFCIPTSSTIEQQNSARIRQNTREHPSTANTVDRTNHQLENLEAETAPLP", "test": "biochemical", "conditions": "for Emax: read-out: MOR [35S]GTPγS Binding %Emax of DAMGO; for less potent than naltrexone in the MOR [35S]GTPγS binding assay: EC50 compared with naltrexone"}, "MOR [4]": {"biological_target": "T1, MOR", "assay_type": "binding"}, "Swiss-Webster mice [5]": {"test_system": "Swiss-Webster mice", "test": "Warm-water tail immersion assay, agonism study", "assay_type": "in vivo, mouse"}, "KOR [6]": {"biological_target": "KOR (Mus musculus, UniProt P33534)", "sequence (P33534 whole entry)": "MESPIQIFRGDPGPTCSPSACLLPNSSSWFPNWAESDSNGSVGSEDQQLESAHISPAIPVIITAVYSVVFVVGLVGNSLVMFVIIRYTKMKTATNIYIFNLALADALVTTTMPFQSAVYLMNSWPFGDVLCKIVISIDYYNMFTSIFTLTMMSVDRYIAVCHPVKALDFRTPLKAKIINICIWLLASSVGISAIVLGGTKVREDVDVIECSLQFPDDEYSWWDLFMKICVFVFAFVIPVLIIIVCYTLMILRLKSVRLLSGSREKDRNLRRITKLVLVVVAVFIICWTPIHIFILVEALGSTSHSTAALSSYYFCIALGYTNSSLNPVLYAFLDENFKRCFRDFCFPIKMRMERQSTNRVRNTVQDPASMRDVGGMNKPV", "test": "KOR [35S]GTPγS binding functional assay", "assay_type": "biochemical"}, "DOR [7]": {"biological_target": "T2, DOR (Mus musculus, UniProt P32300)", "T2 sequence (P32300 whole entry)": "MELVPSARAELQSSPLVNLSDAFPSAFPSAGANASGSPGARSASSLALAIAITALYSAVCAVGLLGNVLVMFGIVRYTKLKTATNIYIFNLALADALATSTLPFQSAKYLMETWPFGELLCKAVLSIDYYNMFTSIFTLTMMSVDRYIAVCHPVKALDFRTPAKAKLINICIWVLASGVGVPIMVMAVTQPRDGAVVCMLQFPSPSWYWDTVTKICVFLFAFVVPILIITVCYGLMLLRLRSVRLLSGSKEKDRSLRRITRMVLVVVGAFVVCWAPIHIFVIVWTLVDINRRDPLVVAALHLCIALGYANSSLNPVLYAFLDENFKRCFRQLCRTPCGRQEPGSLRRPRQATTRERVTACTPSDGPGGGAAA", "test": "DOR [35S]GTPγS binding functional assay", "assay_type": "biochemical", "conditions": "vs naltrexone"}, "hMOR": {"biological_target": "hMOR (Homo sapiens, UniProt P35372)", "sequence (P35372 whole entry)": "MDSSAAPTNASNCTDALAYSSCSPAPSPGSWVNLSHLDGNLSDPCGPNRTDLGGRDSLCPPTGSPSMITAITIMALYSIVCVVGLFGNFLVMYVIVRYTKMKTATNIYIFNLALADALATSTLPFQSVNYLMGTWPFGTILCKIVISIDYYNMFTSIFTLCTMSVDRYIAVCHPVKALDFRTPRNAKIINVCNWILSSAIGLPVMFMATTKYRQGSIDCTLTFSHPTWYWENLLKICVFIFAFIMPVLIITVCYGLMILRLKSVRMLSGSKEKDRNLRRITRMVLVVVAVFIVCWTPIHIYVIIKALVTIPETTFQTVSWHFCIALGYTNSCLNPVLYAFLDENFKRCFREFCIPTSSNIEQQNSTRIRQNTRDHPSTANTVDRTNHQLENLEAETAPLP", "test": "Ca2+ flux assay in Gαqi5 transfected hMOR-CHO cells", "assay_type": "cell-based", "conditions": "for agonism, increase of intracellular Ca2+ level: agonism study, compared to DAMGO"}, "DOR [8]": {"biological_target": "T2, DOR", "test": "Radioligand competition binding assay, [3H]naltrindole, mDOR-CHO cell membranes", "conditions": "ratio of Ki values, MOR vs DOR"}, "Swiss-Webster mice [9]": {"test_system": "Swiss-Webster mice", "test": "Opioid withdrawal assays in chronic morphine-pelleted mice", "assay_type": "in vivo, mouse"}, "[10]": {"conditions": "1 mg/kg s.c., morphine-pelleted mice, counted over 20 min"}}, "data": [{"smiles": "NC(N)=Nc1ccc2[nH]c3c(c2c1)C[C@@]1(O)[C@H]2Cc4ccc(O)c5c4[C@@]1(CCN2CC1CC1)[C@H]3O5", "note": "[5’-GNTI, 5’-guanidinonaltrindole]", "values": [{"measurement": "5’-GNTI more potent than 6’-GNTI at the KOR", "setting": "KOR [1]", "result": 8, "unit": "fold"}, {"measurement": "functional activity at KOR", "setting": "KOR [2]", "result": "KOR antagonist"}]}, {"smiles": "NC(N)=Nc1ccc2c3c([nH]c2c1)[C@@H]1Oc2c(O)ccc4c2[C@@]12CCN(CC1CC1)[C@H](C4)[C@]2(O)C3", "note": "[6’-GNTI]", "values": [{"measurement": "functional activity at KOR", "setting": "KOR [2]", "result": "KOR full agonist"}]}, {"smiles": "O=C(Cc1cc2ccccc2cn1)N[C@H]1CC[C@@]2(O)[C@H]3Cc4ccc(O)c5c4[C@@]2(CCN3CC2CC2)[C@H]1O5", "note": "[Compound 1, 17-Cyclopropylmethyl-3,14β-dihydroxy-4,5α-epoxy-6α-[2-(isoquinolin-3-yl)acetamido)morphinan]", "values": [{"measurement": "Emax", "setting": "MOR [3]", "result": "18.6 ± 1.1", "unit": "%"}]}, {"smiles": "O=C(CCc1cc2ccccc2cn1)N[C@H]1CC[C@@]2(O)[C@H]3Cc4ccc(O)c5c4[C@@]2(CCN3CC2CC2)[C@H]1O5", "note": "[Compound 2, 17-Cyclopropylmethyl-3,14β-dihydroxy-4,5α-epoxy-6α-[3-(isoquinolin-3-yl)propanamido)morphinan]", "values": [{"measurement": "Emax", "setting": "MOR [3]", "result": "27.4 ± 0.35", "unit": "%"}]}, {"smiles": "O=C(CNC(=O)c1cc2ccccc2cn1)N[C@H]1CC[C@@]2(O)[C@H]3Cc4ccc(O)c5c4[C@@]2(CCN3CC2CC2)[C@H]1O5", "note": "[Compound 3, 17-Cyclopropylmethyl-3,14β-dihydroxy-4,5α-epoxy-6α-[2-(isoquinoline-3-carboxamido)acetamido}morphinan]", "values": [{"measurement": "Emax", "setting": "MOR [3]", "result": "< 15", "unit": "%"}]}, {"smiles": "COc1c(C(=O)N[C@H]2CC[C@@]3(O)[C@H]4Cc5ccc(O)c6c5[C@@]3(CCN4CC3CC3)[C@H]2O6)nc(Cl)c2ccccc12", "note": "[Compound 4, 17-Cyclopropylmethyl-3,14β-dihydroxy-4,5α-epoxy-6α-(1-chloro-4-methoxyisoquinoline-3-carboxamido)morphinan]", "values": [{"measurement": "4 more potent than 11 in the radioligand competition binding assay", "setting": "MOR [4]", "result": "about 10 fold"}, {"measurement": "% MPE, intrinsic antinociceptive effect", "setting": "Swiss-Webster mice [5]; 10 mg/kg s.c., 20 min after injection, mice, 56 °C", "result": "full agonist"}, {"measurement": "difference between the potencies of 4 and morphine in the tail immersion assay", "setting": "Swiss-Webster mice [5]; vs morphine", "result": "~9", "unit": "fold"}, {"measurement": "Emax", "setting": "KOR [6]; read-out: KOR [35S]GTPγS Binding % Emax of U50,488", "result": "7.1 ± 0.5", "unit": "%"}, {"measurement": "DOR [35S]GTPγS potency, less potent compared to naltrexone", "setting": "DOR [7]", "result": "7- to 25 fold"}, {"measurement": "agonism, increase of intracellular Ca2+ level", "setting": "hMOR", "result": "did not show any significant agonist activity"}, {"measurement": "higher potency of 4 to 11 in Ca2+ flux antagonism study", "setting": "hMOR; vs compound 11", "result": 100, "unit": "fold"}, {"measurement": "difference between the potencies of 4 and morphine in the MOR [35S]GTPγS binding assay", "setting": "MOR [3]", "result": "~70", "unit": "fold"}]}, {"smiles": "O=C(N[C@H]1CC[C@@]2(O)[C@H]3Cc4ccc(O)c5c4[C@@]2(CCN3CC2CC2)[C@H]1O5)c1nc(Cl)c2ccccc2c1O", "note": "[Compound 5, 17-Cyclopropylmethyl-3,14β-dihydroxy-4,5α-epoxy-6α-(1-chloro-4-hydroxyisoquinoline-3-carboxamido)morphinan]", "values": [{"measurement": "Emax", "setting": "MOR [3]", "result": "19.8 ± 0.8", "unit": "%"}, {"measurement": "Selectivity δ/µ", "setting": "DOR [8]", "result": "> 15"}]}, {"smiles": "O=C(N[C@H]1CC[C@@]2(O)[C@H]3Cc4ccc(O)c5c4[C@@]2(CCN3CC2CC2)[C@H]1O5)c1ncc2ccccc2c1O", "note": "[Compound 6, 17-Cyclopropylmethyl-3,14β-dihydroxy-4,5α-epoxy-6α-(4-hydroxyisoquinoline-3-carboxamido)morphinan]", "values": [{"measurement": "Emax", "setting": "MOR [3]", "result": "20.5 ± 0.9", "unit": "%"}]}, {"smiles": "O=C(N[C@H]1CC[C@@]2(O)[C@H]3Cc4ccc(O)c5c4[C@@]2(CCN3CC2CC2)[C@H]1O5)c1ncc2ccccc2n1", "note": "[Compound 7, 17-Cyclopropylmethyl-3,14β-dihydroxy-4,5α-epoxy-6α-(4-quinazoline-2-carboxamido)morphinan]", "values": [{"measurement": "Emax", "setting": "MOR [3]", "result": "21.6 ± 0.8", "unit": "%"}]}, {"smiles": "N#Cc1nc(C(=O)N[C@H]2CC[C@@]3(O)[C@H]4Cc5ccc(O)c6c5[C@@]3(CCN4CC3CC3)[C@H]2O6)cc2ccccc12", "note": "[Compound 9, 17-Cyclopropylmethyl-3,14β-dihydroxy-4,5α-epoxy-6α-(1-cyanoisoquinoline-3-carboxamido)morphinan]", "values": [{"measurement": "Emax", "setting": "MOR [3]", "result": "37.5 ± 0.7", "unit": "%"}]}, {"smiles": "Cc1nc(C(=O)N[C@H]2CC[C@@]3(O)[C@H]4Cc5ccc(O)c6c5[C@@]3(CCN4CC3CC3)[C@H]2O6)cc2ccccc12", "note": "[Compound 10, 17-Cyclopropylmethyl-3,14β-dihydroxy-4,5α-epoxy-6α-(1-methylisoquinolin-3-carboxamido)morphinan]", "values": [{"measurement": "Emax", "setting": "MOR [3]", "result": "22.2 ± 0.4", "unit": "%"}]}, {"smiles": "O=C(N[C@H]1CC[C@@]2(O)[C@H]3Cc4ccc(O)c5c4[C@@]2(CCN3CC2CC2)[C@H]1O5)c1cc2cc([N+](=O)[O-])ccc2cn1", "note": "[Compound 11, 17-Cyclopropylmethyl-3,14β-dihydroxy-4,5α-epoxy-6α-(6-nitroisoquinoline-3-carboxamido)morphinan]", "values": [{"measurement": "KOR [35S]GTPγS potency, lower than that of NAQ", "setting": "KOR [6]; vs NAQ", "result": "~6", "unit": "fold"}, {"measurement": "KOR [35S]GTPγS potency, less potent than naltrexone", "setting": "KOR [6]; vs naltrexone", "result": "~80", "unit": "fold"}, {"measurement": "DOR [35S]GTPγS potency, less potent compared to naltrexone", "setting": "DOR [7]", "result": "7- to 25 fold"}, {"measurement": "withdrawal symptoms in placebo-pelleted mice", "setting": "Swiss-Webster mice [9]; 30 mg/kg s.c., placebo-pelleted mice", "result": "did not induce any significant withdrawal symptoms"}, {"measurement": "escape jumps in morphine-pelleted mice, dose dependence", "setting": "Swiss-Webster mice [9]; s.c., doses up to 100 mg/kg, plateau at 100 mg/kg", "result": "did not precipitate significant jumps in morphine-pelleted mice until 30 mg/kg"}, {"measurement": "wet-dog shakes in morphine-pelleted mice compared to naltrexone", "setting": "Swiss-Webster mice [9]; s.c., doses up to 100 mg/kg, vs naltrexone 1 mg/kg", "result": "significantly less wet-dog shakes"}, {"measurement": "agonism, increase of intracellular Ca2+ level", "setting": "hMOR", "result": "no apparent agonism"}, {"measurement": "less potent than naltrexone in the MOR [35S]GTPγS binding assay", "setting": "MOR [3]", "result": "≥ 200", "unit": "fold"}]}, {"smiles": "O=C(N[C@H]1CC[C@@]2(O)[C@H]3Cc4ccc(O)c5c4[C@@]2(CCN3CC2CC2)[C@H]1O5)c1cc2ccc([N+](=O)[O-])cc2cn1", "note": "[Compound 12, 17-Cyclopropylmethyl-3,14β-dihydroxy-4,5α-epoxy-6α-(7-nitroisoquinoline-3-carboxamido)morphinan]", "values": [{"measurement": "less potent than naltrexone in the MOR [35S]GTPγS binding assay", "setting": "MOR [3]", "result": "≥ 200", "unit": "fold"}]}, {"smiles": "CN(C)c1ccc2cc(C(=O)N[C@H]3CC[C@@]4(O)[C@H]5Cc6ccc(O)c7c6[C@@]4(CCN5CC4CC4)[C@H]3O7)ncc2c1", "note": "[Compound 13, 17-Cyclopropylmethyl-3,14β-dihydroxy-4,5α-epoxy-6α-(7-dimethylaminoisoquinoline-3-carboxamido)morphinan]", "values": [{"measurement": "Selectivity δ/µ", "setting": "DOR [8]", "result": "> 15"}]}, {"smiles": "COc1cc2cnc(C(=O)N[C@H]3CC[C@@]4(O)[C@H]5Cc6ccc(O)c7c6[C@@]4(CCN5CC4CC4)[C@H]3O7)cc2cc1OC", "note": "[Compound 14, 17-Cyclopropylmethyl-3,14β-dihydroxy-4,5α-epoxy-6α-(6,7-dimethoxyisoquinoline-3-carboxamido)morphinan]", "values": [{"measurement": "less potent than naltrexone in the MOR [35S]GTPγS binding assay", "setting": "MOR [3]", "result": "≥ 200", "unit": "fold"}]}, {"smiles": "CN1Cc2ccccc2C[C@H]1C(=O)N[C@H]1CC[C@@]2(O)[C@H]3Cc4ccc(O)c5c4[C@@]2(CCN3CC2CC2)[C@H]1O5", "note": "[Compound 15, 17-Cyclopropylmethyl-3,14β-dihydroxy-4,5α-epoxy-6α-[(S)-(2-methyl-1,2,3,4-tetrahydroisoquinoline-3-carboxamido)]morphinan]", "values": [{"measurement": "Emax", "setting": "MOR [3]", "result": "24.8 ± 1.3", "unit": "%"}]}, {"smiles": "O=C(N[C@H]1CC[C@@]2(O)[C@H]3Cc4ccc(O)c5c4[C@@]2(CCN3CC2CC2)[C@H]1O5)c1cc2ccccc2cn1", "note": "[NAQ, 17-cyclopropylmethyl-3,14β-dihydroxy-4,5α-epoxy-6α-(isoquinoline-3′-carboxamido)morphinan, reference compound]", "values": [{"measurement": "DOR [35S]GTPγS potency, less potent compared to naltrexone", "setting": "DOR [7]", "result": "7- to 25 fold"}]}, {"smiles": "O=C1CC[C@@]2(O)[C@H]3Cc4ccc(O)c5c4[C@@]2(CCN3CC2CC2)[C@H]1O5", "note": "[NTX, naltrexone, reference compound]", "values": [{"measurement": "escape jumps", "setting": "Swiss-Webster mice [9]; [10]", "result": "30.0 ± 12.1", "unit": "times"}, {"measurement": "wet-dog shakes", "setting": "Swiss-Webster mice [9]; [10]", "result": "14.8 ± 2.2", "unit": "times"}]}]}
